Experiments:
[1] = test system: HL-60; assay: Cytotoxicity against HL-60 leukemia cells; format: functional, cell-based, Homo sapiens
[2] = test system: C13; assay: Cytotoxicity against cisplatin-resistant cell lines (C13*); format: functional, cell-based, Homo sapiens
[3] = Cytotoxicity against human ovarian 2008 (wild type) cell lines; format: functional, cell-based

Row | Compound | IC50 ([1]; Homo sapiens, HL-60) [µM] | IC50 ([2]; Homo sapiens, C13) [µM] | IC50 ([3]; Homo sapiens) [µM] | IC50 ([1]; hl-60) [µM] | IC50 ([2]; c13) [µM] | IC50 [3] [µM]
1 | CNC(=S)N(C)CCNc1c2ccccc2nc2ccccc12 | 11 | 3.7 | 2.2 | – | – | –
2 | 2-(9-acridiniumylamino)ethyl(methyl)amino(imino)methyl(methyl)amine1-PtCl(en) | – | – | – | 0.13 | 9.6 | 3.8
3 | 9-acridinylmethylamino-methylaminomethanethione1-PtCl(en) | – | – | – | 75 | > 100 | > 100

Reference: ChEMBL document CHEMBL1134312, “Design, synthesis, and biological activity of a novel non-cisplatin-type platinum-acridine pharmacophore” (J Med Chem, 2001)
